Data as given in ChEMBL document CHEMBL4507324 (2021).

Columns and labels:
Conditions in all cases: Compound concentration 100.0 nM
[1] = molecular target: Ephrin type-A receptor 5 (Homo sapiens) (UniProt P54756)
[2] = molecular target: 3-phosphoinositide-dependent protein kinase 1 (Homo sapiens) (UniProt O15530)
[3] = molecular target: Protein kinase C eta type (Homo sapiens) (UniProt P24723)
[4] = molecular target: Fibroblast growth factor receptor 4 (Homo sapiens) (UniProt P22455)
[5] = molecular target: Serine/threonine-protein kinase NLK (Homo sapiens) (UniProt Q9UBE8)
[6] = molecular target: Serine/threonine-protein kinase SIK3 (Homo sapiens) (UniProt Q9Y2K2)
[7] = molecular target: Calcium/calmodulin-dependent protein kinase type II subunit beta (Homo sapiens) (UniProt Q13554)
Chain of Calcium/calmodulin-dependent protein kinase type II subunit beta (Homo sapiens) (Q13554 whole entry): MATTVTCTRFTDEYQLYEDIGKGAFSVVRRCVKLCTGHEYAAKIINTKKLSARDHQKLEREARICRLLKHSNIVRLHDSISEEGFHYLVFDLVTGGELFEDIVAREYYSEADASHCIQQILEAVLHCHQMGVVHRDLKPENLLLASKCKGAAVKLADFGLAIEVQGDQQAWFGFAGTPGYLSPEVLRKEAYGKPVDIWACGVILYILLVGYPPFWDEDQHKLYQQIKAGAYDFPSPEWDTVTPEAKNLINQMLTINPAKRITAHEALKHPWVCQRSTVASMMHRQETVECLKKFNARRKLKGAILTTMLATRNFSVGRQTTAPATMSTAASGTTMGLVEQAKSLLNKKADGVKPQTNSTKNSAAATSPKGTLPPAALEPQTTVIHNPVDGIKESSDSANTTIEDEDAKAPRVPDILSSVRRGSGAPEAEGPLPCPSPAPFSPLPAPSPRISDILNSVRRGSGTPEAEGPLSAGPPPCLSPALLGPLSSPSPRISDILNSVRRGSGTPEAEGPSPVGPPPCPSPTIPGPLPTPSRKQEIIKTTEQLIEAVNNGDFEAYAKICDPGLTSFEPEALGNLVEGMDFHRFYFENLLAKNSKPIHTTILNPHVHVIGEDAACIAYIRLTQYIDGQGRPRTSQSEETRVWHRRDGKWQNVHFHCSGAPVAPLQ

[8] = molecular target: Dual specificity mitogen-activated protein kinase kinase 6 (Homo sapiens) (UniProt P52564)
[9] = molecular target: Serine/threonine-protein kinase ULK2 (Homo sapiens) (UniProt Q8IYT8)
[10] = molecular target: MAP kinase-activated protein kinase 2 (Homo sapiens) (UniProt P49137)
[11] = molecular target: Serine/threonine-protein kinase Chk2 (Homo sapiens, UniProt O96017)
[12] = molecular target: Serine/threonine-protein kinase 32C (Homo sapiens) (UniProt Q86UX6)
Chain of Serine/threonine-protein kinase 32C (Homo sapiens) (Q86UX6 whole entry): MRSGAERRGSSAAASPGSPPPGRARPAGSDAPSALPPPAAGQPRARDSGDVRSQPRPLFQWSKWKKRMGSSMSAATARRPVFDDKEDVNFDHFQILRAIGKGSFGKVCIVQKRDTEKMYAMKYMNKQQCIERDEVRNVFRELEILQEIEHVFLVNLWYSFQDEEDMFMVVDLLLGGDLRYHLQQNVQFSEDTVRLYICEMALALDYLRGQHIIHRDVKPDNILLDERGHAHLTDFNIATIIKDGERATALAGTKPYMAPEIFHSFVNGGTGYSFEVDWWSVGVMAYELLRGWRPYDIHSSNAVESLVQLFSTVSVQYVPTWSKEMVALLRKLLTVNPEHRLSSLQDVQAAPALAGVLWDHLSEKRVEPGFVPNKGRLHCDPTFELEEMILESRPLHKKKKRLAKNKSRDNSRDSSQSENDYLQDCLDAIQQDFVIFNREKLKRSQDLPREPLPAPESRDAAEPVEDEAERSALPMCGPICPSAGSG

[13] = molecular target: Tyrosine-protein kinase receptor Tie-1 (Homo sapiens) (UniProt P35590)
[14] = molecular target: cGMP-dependent protein kinase 2 (Homo sapiens) (UniProt Q13237)
[15] = molecular target: Homeodomain-interacting protein kinase 2 (Homo sapiens) (UniProt Q9H2X6)
[16] = molecular target: Serine/threonine-protein kinase N2 (Homo sapiens) (UniProt Q16513)
Chain of Serine/threonine-protein kinase N2 (Homo sapiens) (Q16513 whole entry, looked up, canonical isoform): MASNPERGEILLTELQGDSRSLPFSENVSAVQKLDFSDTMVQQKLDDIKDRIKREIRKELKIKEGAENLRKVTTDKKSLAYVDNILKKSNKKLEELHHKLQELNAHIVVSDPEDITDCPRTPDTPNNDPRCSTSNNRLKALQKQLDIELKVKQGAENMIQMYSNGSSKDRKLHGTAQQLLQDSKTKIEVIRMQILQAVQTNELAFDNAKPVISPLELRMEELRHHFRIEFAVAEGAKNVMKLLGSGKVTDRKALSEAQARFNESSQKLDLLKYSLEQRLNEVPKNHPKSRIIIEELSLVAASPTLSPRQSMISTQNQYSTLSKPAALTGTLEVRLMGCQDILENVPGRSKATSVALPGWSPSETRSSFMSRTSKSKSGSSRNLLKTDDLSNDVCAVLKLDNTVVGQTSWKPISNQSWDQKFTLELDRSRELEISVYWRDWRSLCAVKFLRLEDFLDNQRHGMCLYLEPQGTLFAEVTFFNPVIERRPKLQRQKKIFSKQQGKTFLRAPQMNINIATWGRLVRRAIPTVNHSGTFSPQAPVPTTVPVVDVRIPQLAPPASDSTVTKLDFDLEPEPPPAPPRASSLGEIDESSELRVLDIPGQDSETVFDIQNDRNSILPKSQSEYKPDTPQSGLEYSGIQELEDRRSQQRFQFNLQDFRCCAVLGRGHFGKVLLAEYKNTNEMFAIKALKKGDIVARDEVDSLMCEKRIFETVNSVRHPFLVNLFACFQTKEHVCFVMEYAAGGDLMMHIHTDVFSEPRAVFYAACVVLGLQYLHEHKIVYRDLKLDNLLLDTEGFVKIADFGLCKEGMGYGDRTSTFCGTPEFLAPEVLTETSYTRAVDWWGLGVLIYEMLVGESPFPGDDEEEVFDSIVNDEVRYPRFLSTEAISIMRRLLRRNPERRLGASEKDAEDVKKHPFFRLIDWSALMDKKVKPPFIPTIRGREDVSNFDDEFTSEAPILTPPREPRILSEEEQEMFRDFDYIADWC

[17] = molecular target: Casein kinase I isoform gamma-2 (Homo sapiens) (UniProt P78368)
[18] = tested on: Mast/stem cell growth factor receptor Kit (Homo sapiens), P10721 [D816V]
Chain of Mast/stem cell growth factor receptor Kit (Homo sapiens), P10721 [D816V] (P10721 whole entry D816V): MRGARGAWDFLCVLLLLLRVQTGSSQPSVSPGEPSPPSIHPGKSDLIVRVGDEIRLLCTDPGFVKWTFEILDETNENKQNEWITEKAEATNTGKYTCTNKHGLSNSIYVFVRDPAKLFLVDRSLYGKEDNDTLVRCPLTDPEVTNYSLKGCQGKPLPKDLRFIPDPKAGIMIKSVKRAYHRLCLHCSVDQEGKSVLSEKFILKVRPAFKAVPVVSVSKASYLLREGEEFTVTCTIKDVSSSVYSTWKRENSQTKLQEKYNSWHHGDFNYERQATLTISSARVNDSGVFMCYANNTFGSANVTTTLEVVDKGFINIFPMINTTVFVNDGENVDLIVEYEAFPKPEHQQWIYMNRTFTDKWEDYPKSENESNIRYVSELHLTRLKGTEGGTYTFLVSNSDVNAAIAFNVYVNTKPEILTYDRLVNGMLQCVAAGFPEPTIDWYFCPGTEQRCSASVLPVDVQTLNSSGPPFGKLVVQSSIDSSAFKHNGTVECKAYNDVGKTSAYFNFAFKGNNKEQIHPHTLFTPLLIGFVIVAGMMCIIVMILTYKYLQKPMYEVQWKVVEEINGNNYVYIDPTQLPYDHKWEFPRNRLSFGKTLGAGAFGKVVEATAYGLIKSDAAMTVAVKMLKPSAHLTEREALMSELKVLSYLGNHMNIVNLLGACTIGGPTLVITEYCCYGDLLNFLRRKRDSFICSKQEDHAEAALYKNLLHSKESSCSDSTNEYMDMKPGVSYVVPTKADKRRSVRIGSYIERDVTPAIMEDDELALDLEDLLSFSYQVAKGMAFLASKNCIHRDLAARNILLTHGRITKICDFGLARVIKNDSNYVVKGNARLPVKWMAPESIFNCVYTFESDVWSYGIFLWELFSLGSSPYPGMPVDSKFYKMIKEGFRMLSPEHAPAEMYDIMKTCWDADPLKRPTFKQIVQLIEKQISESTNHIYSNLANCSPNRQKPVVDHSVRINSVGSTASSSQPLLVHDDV

[19] = molecular target: Inhibitor of nuclear factor kappa-B kinase subunit beta (Homo sapiens) (UniProt O14920)
[20] = molecular target: Tyrosine-protein kinase JAK3 (Homo sapiens) (UniProt P52333)
[21] = molecular target: Mitotic checkpoint serine/threonine-protein kinase BUB1 (Homo sapiens) (UniProt O43683)
[22] = molecular target: Phosphatidylinositol 4,5-bisphosphate 3-kinase catalytic subunit alpha isoform (Homo sapiens) (UniProt P42336)
[23] = tested on: Phosphatidylinositol 4,5-bisphosphate 3-kinase catalytic subunit alpha isoform (Homo sapiens), P42336 [E545K]
[24] = molecular target: Serine/threonine-protein kinase 17B (Homo sapiens) (UniProt O94768)
[25] = tested on: Leucine-rich repeat serine/threonine-protein kinase 2 (Homo sapiens), Q5S007 [G2019S]
[26] = molecular target: Mitogen-activated protein kinase kinase kinase 12 (Homo sapiens) (UniProt Q12852)
[27] = molecular target: Ribosomal protein S6 kinase alpha-5 (Homo sapiens) (UniProt O75582)
[28] = molecular target: Cyclin-dependent kinase 11A (Homo sapiens) (UniProt Q9UQ88)
[29] = molecular target: Mitogen-activated protein kinase kinase kinase 13 (Homo sapiens) (UniProt O43283)
[30] = molecular target: Dual specificity protein kinase CLK3 (Homo sapiens) (UniProt P49761)
Chain of Dual specificity protein kinase CLK3 (Homo sapiens) (P49761 whole entry, looked up): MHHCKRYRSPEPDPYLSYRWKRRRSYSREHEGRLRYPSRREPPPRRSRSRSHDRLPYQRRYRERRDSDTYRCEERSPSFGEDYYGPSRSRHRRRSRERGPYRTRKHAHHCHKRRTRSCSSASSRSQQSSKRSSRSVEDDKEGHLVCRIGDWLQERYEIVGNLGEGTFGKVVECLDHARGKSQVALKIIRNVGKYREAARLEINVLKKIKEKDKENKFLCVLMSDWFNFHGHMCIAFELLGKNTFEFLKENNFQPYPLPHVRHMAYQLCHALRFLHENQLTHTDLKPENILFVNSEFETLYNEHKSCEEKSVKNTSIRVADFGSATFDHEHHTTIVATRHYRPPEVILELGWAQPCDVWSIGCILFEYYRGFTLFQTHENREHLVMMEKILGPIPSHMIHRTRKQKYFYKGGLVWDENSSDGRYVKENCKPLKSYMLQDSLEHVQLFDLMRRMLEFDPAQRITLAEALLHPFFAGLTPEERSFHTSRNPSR

[31] = molecular target: Platelet-derived growth factor receptor beta (Homo sapiens) (UniProt P09619)
[32] = molecular target: Casein kinase I isoform gamma-3 (Homo sapiens) (UniProt Q9Y6M4)
[33] = molecular target: Cyclin-dependent kinase-like 2 (Homo sapiens) (UniProt Q92772)
[34] = molecular target: Ribosomal protein S6 kinase beta-1 (Homo sapiens) (UniProt P23443)
Chain of Ribosomal protein S6 kinase beta-1 (Homo sapiens) (P23443 whole entry, looked up): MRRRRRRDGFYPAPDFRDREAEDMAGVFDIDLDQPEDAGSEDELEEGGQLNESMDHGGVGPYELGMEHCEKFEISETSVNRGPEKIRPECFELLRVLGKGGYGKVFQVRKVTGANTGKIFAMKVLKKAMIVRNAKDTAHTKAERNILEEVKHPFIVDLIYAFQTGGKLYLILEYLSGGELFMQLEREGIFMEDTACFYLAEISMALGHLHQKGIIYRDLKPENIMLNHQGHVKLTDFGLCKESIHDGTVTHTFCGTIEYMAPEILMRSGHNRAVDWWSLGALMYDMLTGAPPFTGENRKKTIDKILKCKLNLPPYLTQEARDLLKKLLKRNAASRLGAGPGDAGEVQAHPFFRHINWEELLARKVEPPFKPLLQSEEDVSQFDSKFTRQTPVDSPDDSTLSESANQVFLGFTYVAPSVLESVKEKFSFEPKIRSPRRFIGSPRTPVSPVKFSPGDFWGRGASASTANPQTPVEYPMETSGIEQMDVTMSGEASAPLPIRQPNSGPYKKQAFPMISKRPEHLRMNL

[35] = tested on: Receptor-type tyrosine-protein kinase FLT3 (Homo sapiens), P36888 [N841I]
[36] = molecular target: Serine/threonine-protein kinase DCLK2 (Homo sapiens) (UniProt Q8N568)
[37] = molecular target: Tyrosine-protein kinase CSK (Homo sapiens) (UniProt P41240)
[38] = molecular target: Death-associated protein kinase 1 (Homo sapiens) (UniProt P53355)
[39] = molecular target: Vascular endothelial growth factor receptor 3 (Homo sapiens) (UniProt P35916)
[40] = tested on: Epidermal growth factor receptor (Homo sapiens), P00533 [G719S]
[41] = tested on: Receptor-type tyrosine-protein kinase FLT3 (Homo sapiens), P36888 [UNDEFINED MUTATION]
[42] = molecular target: Serine/threonine-protein kinase mTOR (Homo sapiens) (UniProt P42345)
[43] = molecular target: Serine/threonine-protein kinase tousled-like 1 (Homo sapiens) (UniProt Q9UKI8)
[44] = molecular target: Mitogen-activated protein kinase kinase kinase 9 (Homo sapiens) (UniProt P80192)
[45] = molecular target: MAP/microtubule affinity-regulating kinase 4 (Homo sapiens) (UniProt Q96L34)

Chain of Fibroblast growth factor receptor 4 (Homo sapiens) (P22455 22-802 limits assumed): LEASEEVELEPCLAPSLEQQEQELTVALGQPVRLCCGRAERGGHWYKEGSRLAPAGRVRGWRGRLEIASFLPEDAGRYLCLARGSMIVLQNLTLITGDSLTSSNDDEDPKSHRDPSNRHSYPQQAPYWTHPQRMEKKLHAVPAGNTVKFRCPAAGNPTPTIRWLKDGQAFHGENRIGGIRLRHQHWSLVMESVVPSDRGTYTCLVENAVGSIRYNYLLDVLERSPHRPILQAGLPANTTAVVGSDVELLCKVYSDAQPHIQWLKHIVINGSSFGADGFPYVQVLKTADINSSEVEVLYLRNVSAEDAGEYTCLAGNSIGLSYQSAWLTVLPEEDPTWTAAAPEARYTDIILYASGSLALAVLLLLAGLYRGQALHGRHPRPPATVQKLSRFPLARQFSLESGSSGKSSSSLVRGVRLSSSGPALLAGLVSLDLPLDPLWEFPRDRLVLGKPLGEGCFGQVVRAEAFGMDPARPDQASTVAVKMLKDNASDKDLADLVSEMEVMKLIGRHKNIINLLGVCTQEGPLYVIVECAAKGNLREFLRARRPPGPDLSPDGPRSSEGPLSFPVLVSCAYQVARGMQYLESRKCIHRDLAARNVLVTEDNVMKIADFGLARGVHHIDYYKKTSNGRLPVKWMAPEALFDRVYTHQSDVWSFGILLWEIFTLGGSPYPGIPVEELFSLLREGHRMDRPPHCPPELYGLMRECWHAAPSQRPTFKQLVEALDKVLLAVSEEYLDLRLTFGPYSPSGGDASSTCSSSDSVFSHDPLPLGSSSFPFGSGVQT

CS(=O)(=O)N1CCCC(NC(=O)[C@H](CCC2CCCCC2)NC(=O)c2ccc(CNc3ncnc4c3nnn4-c3ccccc3)cc2)C1 (stereo not given in full) [SR-301]
residual activity [1]: 96%
residual activity [2]: 99%
residual activity [3]: 79%
residual activity [4]: 100%
residual activity [5]: 100%
residual activity [6]: 78%
residual activity [7]: 100%
residual activity [8]: 67%
residual activity [9]: 100%
residual activity [10]: 100%
residual activity [11]: 100%
residual activity [12]: 100%
residual activity [13]: 100%
residual activity [14]: 79%
residual activity [15]: 100%
residual activity [16]: 95%
residual activity [17]: 82%
residual activity [18]: 100%
residual activity [19]: 100%
residual activity [20]: 100%
residual activity [21]: 100%
residual activity [22]: 98%
residual activity [23]: 53%
residual activity [24]: 100%
residual activity [25]: 100%
residual activity [26]: 100%
residual activity [27]: 81%
residual activity [28]: 87%
residual activity [29]: 100%
residual activity [30]: 85%
residual activity [31]: 86%
residual activity [32]: 100%
residual activity [33]: 100%
residual activity [34]: 100%
residual activity [35]: 99%
residual activity [36]: 95%
residual activity [37]: 91%
residual activity [38]: 92%
residual activity [39]: 81%
residual activity [40]: 72%
residual activity [41]: 100%
residual activity [42]: 100%
residual activity [43]: 94%
residual activity [44]: 90%
residual activity [45]: 71%

CS(=O)(=O)N1CCCC(NC(=O)[C@H](CCC2CCCCC2)NC(=O)c2ccc(CNC(=O)c3cnc4ccccn34)cc2)C1 (stereo not given in full) [SR-302]
residual activity [1]: 100%
residual activity [2]: 100%
residual activity [3]: 95%
residual activity [4]: 100%
residual activity [5]: 100%
residual activity [6]: 100%
residual activity [7]: 100%
residual activity [8]: 72%
residual activity [9]: 100%
residual activity [10]: 76%
residual activity [11]: 37%
residual activity [12]: 85%
residual activity [13]: 100%
residual activity [14]: 82%
residual activity [15]: 100%
residual activity [16]: 100%
residual activity [17]: 70%
residual activity [18]: 100%
residual activity [19]: 100%
residual activity [20]: 69%
residual activity [21]: 100%
residual activity [22]: 86%
residual activity [23]: 86%
residual activity [24]: 83%
residual activity [25]: 100%
residual activity [26]: 100%
residual activity [27]: 90%
residual activity [28]: 100%
residual activity [29]: 74%
residual activity [30]: 100%
residual activity [31]: 100%
residual activity [32]: 100%
residual activity [33]: 85%
residual activity [34]: 100%
residual activity [35]: 67%
residual activity [36]: 100%
residual activity [37]: 100%
residual activity [38]: 88%
residual activity [39]: 95%
residual activity [40]: 100%
residual activity [41]: 100%
residual activity [42]: 100%
residual activity [43]: 72%
residual activity [44]: 65%
residual activity [45]: 100%
